The source of these data is US8198252B2, “SIRNA inhibition of PI3K P85, P110, and AKT2 and methods of use” (Board of Regents, The University of Texas System, priority 2006, dated 2012).

Assay [1] deals with KM20-GFP cells. The assay can be described thus: Liver metastasis establishment by cells transfected with siRNA in vitro. It is filed as in vivo, mice. As to conditions: three weeks. On the procedure: (§1) In Vivo Experiments. For in vivo studies, 4- to 6-week-old male nude^nu/nu mice were obtained from Harlan Sprague Dawley (Indianapolis, Ind.) and housed in clean, pathogen-free rooms in an environment with controlled temperature (22° C.), humidity, and a 12 hours light/dark cycle. The mice were fed standard chow (Formula Chow 5008; Purina Mills, St. Louis, Mo.) and tap water ad libitum and allowed to acclimate for 1 week. All studies were approved by the Institutional Animal Care and Use Committee of UTMB. Tumor cells were injected intrasplenically by methods previously described (Bruns et al., Neoplasia, 1:50-62 (1999)). Briefly, mice were anesthetized with halothane, a small left abdominal flank incision was created, and the spleen was exteriorized. Transfectants were harvested using only trypsin and resuspended as a single-cell suspension in Hanks Balanced Salt Solution, free of Mg^2+ and Ca^2+. Tumor cells (5×10^6 cells/400 μL) were injected into the spleen with a 27-gauge needle. The spleen was returned to the abdomen, and the wound was closed in one layer with wound clips. The mice were observed over the indicated time period using the Illumatool TLS (Lightools Research, Encinitas, Calif.). Animals were randomized into 3 experimental groups (5 animals per group) to receive p85α, p110α, or NTC siSTABLE siRNA (20 μg/mice, qod) by hydrodynamic tail vein injection (Watanabe et al., Gastroenterology, 128:1391-1404 (2005)) 24 hours after operation; mice were killed 35 days later. Experiments were performed in duplicate.
(§2) Methods of cells transfection and liver metastasis establishment are described in Example 1.
(§3) Akt2 is essential for colorectal cancer metastasis establishment. To determine whether Akt2 plays a causal role in colorectal cancer metastasis, we tested whether inhibition of Akt2 expression in the highly metastatic colorectal cancer cells would affect their metastatic ability. HT29^GFP or KM20^GFP cells were transfected with NTC (purchased from Dharmacon Inc.) or Akt2 siRNA (GUACUUCGAUGAUGAAUUU, SEQ ID NO:20) in vitro and inoculated intrasplenically (5×10^6) 60 hours later. To avoid intrasplenic tumor growth, the spleen was removed after 24 h. Animals were monitored individually for metastatic tumor growth using the Illumatool TLS. Three weeks after implantation the mice were sacrificed and the liver was examined for metastatic lesions by inspection of GFP fluorescence. […] In addition, the sizes of individual metastatic nodules present in the liver of both groups of mice were very similar. […] We also suspect that incomplete suppression of Akt2 by siRNA in a small subset of cells account for the residual ability of such cells to form liver metastasis.

Assay [2] concerns HT29-GFP cells. Described as above. The class given is in vivo, mice. To be noted: three weeks. On the procedure:
as §1, §2, §3

Assay [3] relates to Akt2. The assay can be described thus: Western blot of Akt2 in the cells used for intrasplenic inoculation. As to conditions: before (0 h) or after (2 h) surgical procedure. The class given is cell-based, human. On the procedure: Protein Preparation and Western Immunoblot. Western immunoblot analyses were performed as described previously (Wang et al., Clin Cancer Res. 8:1940-1947 (2002)). Cells were lysed with TNN buffer at 4° C. for 30 minutes. Lysates were clarified by centrifugation (10,000 g for 30 minutes at 4° C.) and protein concentrations determined using the method of Bradford (Bradford, Anal Biochem., 72:248-254 (1976)). Briefly, total protein (60 μg) was resolved on a 10% polyacrylamide gel and transferred to Immobilon-P […] membranes. Filters were incubated overnight at 4° C. in blotting solution (Tris-buffered saline containing 5% nonfat dried milk and 0.1% Tween 20), followed by a 1-hour incubation with primary antibodies. Filters were washed 3 times in a blocking solution and incubated with horseradish peroxidase-conjugated secondary antibodies for 1 hour. After 3 additional washes, the immune complexes were visualized by ECL detection.
Akt2 is essential for colorectal cancer metastasis establishment. […] Animals were monitored individually for metastatic tumor growth using the Illumatool TLS. Three weeks after implantation the mice were sacrificed and the liver was examined for metastatic lesions by inspection of GFP fluorescence. […]

The mark [4] stands for this setting: 5×10^6 intrasplenically 60 hours later, compared with NTC siRNA.

With GUACUUCGAUGAUGAAUUU [Akt2 siRNA], the “macroscopically visible metastases in the liver” value in assay [1] (setting [4]) and in assay [2] (setting [4]) was “formed very few metastases” each time. Moreover, the “number of micrometastatic lesions in the liver (histological analysis)” value in assay [1] and in assay [2] was “drastically reduced” throughout. Besides, the “sizes of individual metastatic nodules in the liver, compared with NTC group” value in assay [1] and in assay [2] was “very similar” in each case. Also, the Akt2 expression result in assay [3] (HT29-GFP cells used for intrasplenic inoculation) and in assay [3] (KM20-GFP cells used for intrasplenic inoculation) was “confirmed Akt2 downregulation” in each case.
